From patent publication EP0313094A2, “Anticancer agent and reagent for obtaining revertants” (MEIJI SEIKA KAISHA LTD., priority 1987, dated 1989) come the findings set out here.

“Also recorded” adds a separate entry of the source.

Common to all, as to type: cell-based
Assay [1] relates to PSN-1 cells derived from human pancreatic cancer. Briefly: Inhibition of the growth of PSN-1 cells and acquirement of revertants. How it is done:
PSN-1 cells were incubated at 37°C in RPMI 1640 media each containing 10% (v/v) fetal calf serum and SF-1346 at a concentration of 500 µg/mℓ or 200 µg/mℓ. An initial cell density was adjusted to 1 × 10⁴ cells/mℓ. The cells were counted with the lapse of time from the fourth day to the eighth day after the initiation of the incubation.

Assay [2] relates to NIH3T3 cells transformed with activated c-Ki-ras, N-ras, ret, hst and raf oncogenes. The assay is described as follows: Growth inhibition of NIH3T3 cells transformed with other oncogenes. Particulars: final concentration 500 µg/mℓ. The method, then: (§1) SF-1346 were added to the culture medium of NIH3T3 cells transformed with activated c-Ki-ras, N-ras, ret, hst and raf oncogenes in the same manner as in Example 1 so as to give a final concentration of 500 µg/mℓ.

Assay [3] concerns SRY1 cells which had been obtained by cancerizing rat fibroblast 3Y1 cells through transfection with an src oncogene. The assay is described as follows: Growth inhibition of SRY1 cells. The settings on record: src-transfected rat fibroblast 3Y1 cells; Example 2.
For another assay, the system named is transformed NIH3T3 cells. Briefly: Acquirement of revertants from transformed NIH3T3 cells (morphology, inverted microscope). Particulars: 500 µg/mℓ; sixth day of incubation; inverted microscope 100 × magnification. The method, then: (§2) Cell incubation was carried out under the same conditions as those described in Example 1 except that SF-1346 was added to the culture medium so as to give a final concentration of 500 µg/mℓ. […] Namely, these surviving revertants formed flat foci.
Then, the revertants were isolated by selecting cell clusters forming flat foci by […]. After repeating this procedure several times, the desired revertants were isolated.

Assay [4] has as its system normal NIH3T3 cells. Briefly: Morphology of normal NIH3T3 cells incubated with the compound. The settings on record: 500 µg/mℓ; sixth day of incubation. The method, then:
as §2

The subject of assay [5] is normal NIH3T3 cells. The assay is described as follows: Growth inhibition of normal NIH3T3 cells (cell counting). Particulars: 500 µg/mℓ SF-1346; same culture conditions. The method, then:
(§3) NIH3T3 cells transformed by an activated melanoma c-H-ras oncogene and normal NIH3T3 cells were incubated at 37°C each in a Dulbecco-modified Eagle's medium containing 5% (v/v) of bovine serum.
(§4) Each medium was adjusted to have an initial cell density of 1 × 10⁴ cell/mℓ and contain SF-1346 at a concentration of 200 µg/mℓ or 500 µg/mℓ. The cells therein were counted with the lapse of time from the first day to the fifth day and from the fourth day to the seventh day of the incubation.
as §1

In assay [6] the test system is NIH3T3 cells transformed by an activated melanoma c-H-ras oncogene. The assay is described as follows: Growth inhibition of transformed NIH3T3 cells (cell counting). The settings on record: 500 µg/mℓ SF-1346, 37°C, Dulbecco-modified Eagle's medium, 5% bovine serum, initial 1 × 10⁴ cell/mℓ. The method, then:
as §3, §4

As to `N[C@@H](Cc1ccc(O)cn1)C(=O)O` [SF-1346, L-β-(5-hydroxy-2-pyridyl)alanine], in assay [1] (200 µg/mℓ, PSN-1 cells), the “cells converted into flat revertants” value turned out to be 85%, the cells killed came to 15% and the “growth of the cancer cells” value is reported as “completely inhibiting the growth”. Also, in assay [1] (500 µg/mℓ, RPMI 1640, 10% fetal calf serum, counted fourth to eighth day), the “killing of PSN-1 cells” value was “completely killed”. In assay [2], the “growth of the transformed NIH3T3 cells” value is on record as “inhibited the growth”. Besides, in assay [3], the “growth of SRY1 cells” value is given as “completely inhibited the growth”. The “morphological observation of transformed cells (revertant formation)” value in the assay on transformed NIH3T3 cells is “the transformed cells partially died and the selectively surviving cells were morphologically similar to the normal NIH3T3 cells”. Also, the “morphological change of normal cells” value with normal NIH3T3 cells [4] was “no morphological change was observed”. Further, in the assay with normal NIH3T3 cells [5], the “growth of the normal NIH3T3 cells” value is given as “did not inhibit; also recorded: does not inhibit the growth”. Moreover, in assay [6], the “growth of the transformed NIH3T3 cells” value is reported as “inhibit the growth; also recorded: selectively inhibits the growth”.
